Drawing on ChEMBL document CHEMBL1909046, “DrugMatrix in vitro pharmacology data”, this text covers IC50 for 19 molecules.

Experiment [1] addresses T1, 5-hydroxytryptamine receptor 2C (Homo sapiens, UniProt P28335).
T1 sequence (P28335 whole entry): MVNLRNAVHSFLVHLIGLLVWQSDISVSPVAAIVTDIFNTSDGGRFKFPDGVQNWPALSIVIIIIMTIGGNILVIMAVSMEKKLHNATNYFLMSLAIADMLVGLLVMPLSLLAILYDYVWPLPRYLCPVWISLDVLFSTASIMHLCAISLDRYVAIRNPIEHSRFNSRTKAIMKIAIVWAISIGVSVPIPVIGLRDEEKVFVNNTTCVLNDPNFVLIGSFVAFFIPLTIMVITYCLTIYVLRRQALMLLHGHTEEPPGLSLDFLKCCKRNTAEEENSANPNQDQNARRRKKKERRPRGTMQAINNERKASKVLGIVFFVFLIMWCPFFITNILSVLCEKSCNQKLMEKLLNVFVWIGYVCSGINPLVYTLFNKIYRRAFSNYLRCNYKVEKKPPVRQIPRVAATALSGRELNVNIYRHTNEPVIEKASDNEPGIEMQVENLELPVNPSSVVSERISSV
The experiment is described as follows: DRUGMATRIX: Serotonin (5-Hydroxytryptamine) 5-HT2C radioligand binding (ligand: [3H] Mesulergine). It is filed as cell membranes, CHO-K1, Membrane. Conditions: cho-k1; Not Active = under 50% inhibition at 10 µM.

In experiment [2] the target is C-C chemokine receptor type 2 (Homo sapiens, UniProt P41597). It is filed as cell membranes, CHO-K1, Membrane. As to conditions: cho-k1. Note: in other assays of this panel Not Active means under 50% inhibition at 10 µM.
The target of experiment [3] is T2, C-C chemokine receptor type 4 (Homo sapiens, UniProt P51679). Note: in other assays of this panel Not Active means under 50% inhibition at 10 µM.
T2 sequence (P51679 whole entry): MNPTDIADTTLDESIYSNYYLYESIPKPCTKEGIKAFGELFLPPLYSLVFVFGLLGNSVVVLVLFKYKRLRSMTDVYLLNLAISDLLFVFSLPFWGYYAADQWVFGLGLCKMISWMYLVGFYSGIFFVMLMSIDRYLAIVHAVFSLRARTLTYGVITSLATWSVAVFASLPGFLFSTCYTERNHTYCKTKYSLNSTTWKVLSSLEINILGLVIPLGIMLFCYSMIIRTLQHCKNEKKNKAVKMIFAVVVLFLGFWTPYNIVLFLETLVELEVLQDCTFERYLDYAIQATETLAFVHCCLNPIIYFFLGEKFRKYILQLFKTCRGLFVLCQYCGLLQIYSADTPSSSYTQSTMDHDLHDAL
It is filed as cell membranes, Membrane. Conditions: chem-1.

Another experiment concerns the target Glycine receptor (Rattus norvegicus, UniProt P22771+P24524+P07727+P20781). The class given is cell membranes, Wistar, Spinal cord, Membrane. Note: in other assays of this panel Not Active means under 50% inhibition at 10 µM.
The next experiment concerns the target Melanocortin receptor 4 (Homo sapiens, UniProt P32245). It is filed as cell membranes, Membrane. Conditions: hek293. Note: in other assays of this panel Not Active means under 50% inhibition at 10 µM.
Experiment [4] has as its target cGMP-specific 3',5'-cyclic phosphodiesterase (Homo sapiens, UniProt O76074). Nature of the experiment: DRUGMATRIX: Phosphodiesterase PDE5 enzyme inhibition (substrate: [3H]cGMP + cGMP). It is filed as tissue-based. As to conditions: platelet; Not Active = under 50% inhibition at 10 µM.
In experiment [5] the target is Receptor tyrosine-protein kinase erbB-2 (Homo sapiens, UniProt P04626). The experiment is described as follows: biochemical. It is filed as cell-based, Insect cells.
Chain of Receptor tyrosine-protein kinase erbB-2 (P04626 whole entry): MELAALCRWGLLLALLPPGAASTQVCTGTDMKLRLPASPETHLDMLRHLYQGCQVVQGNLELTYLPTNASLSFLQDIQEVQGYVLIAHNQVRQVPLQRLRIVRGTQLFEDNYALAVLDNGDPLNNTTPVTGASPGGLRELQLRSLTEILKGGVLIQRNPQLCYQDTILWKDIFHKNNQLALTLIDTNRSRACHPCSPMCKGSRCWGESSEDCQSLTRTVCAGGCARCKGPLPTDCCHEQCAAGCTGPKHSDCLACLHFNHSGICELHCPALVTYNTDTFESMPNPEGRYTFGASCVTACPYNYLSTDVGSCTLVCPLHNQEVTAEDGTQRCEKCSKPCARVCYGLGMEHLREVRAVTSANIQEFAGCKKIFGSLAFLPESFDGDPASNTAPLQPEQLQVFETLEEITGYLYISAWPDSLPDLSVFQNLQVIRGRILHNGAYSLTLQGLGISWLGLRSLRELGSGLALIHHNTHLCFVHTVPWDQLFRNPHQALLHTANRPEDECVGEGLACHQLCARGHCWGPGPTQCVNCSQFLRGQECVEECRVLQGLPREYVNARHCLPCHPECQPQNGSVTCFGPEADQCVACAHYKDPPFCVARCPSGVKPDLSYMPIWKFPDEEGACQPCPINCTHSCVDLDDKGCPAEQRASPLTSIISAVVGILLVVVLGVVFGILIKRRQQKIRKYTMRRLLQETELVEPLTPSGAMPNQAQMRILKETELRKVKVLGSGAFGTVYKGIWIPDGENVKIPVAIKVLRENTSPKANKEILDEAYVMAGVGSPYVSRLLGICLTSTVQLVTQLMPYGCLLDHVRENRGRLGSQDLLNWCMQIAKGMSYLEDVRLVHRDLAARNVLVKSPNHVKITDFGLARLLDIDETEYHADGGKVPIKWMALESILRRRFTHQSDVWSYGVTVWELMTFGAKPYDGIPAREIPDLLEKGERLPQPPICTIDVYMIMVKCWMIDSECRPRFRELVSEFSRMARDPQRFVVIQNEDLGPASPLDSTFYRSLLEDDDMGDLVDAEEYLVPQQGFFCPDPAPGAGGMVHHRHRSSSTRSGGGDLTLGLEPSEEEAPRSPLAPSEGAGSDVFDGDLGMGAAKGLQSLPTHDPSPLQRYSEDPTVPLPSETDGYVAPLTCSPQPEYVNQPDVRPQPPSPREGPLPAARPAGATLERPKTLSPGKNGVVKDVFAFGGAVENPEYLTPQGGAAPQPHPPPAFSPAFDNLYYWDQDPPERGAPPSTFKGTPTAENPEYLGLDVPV

Chain of C-C chemokine receptor type 2 (P41597 whole entry): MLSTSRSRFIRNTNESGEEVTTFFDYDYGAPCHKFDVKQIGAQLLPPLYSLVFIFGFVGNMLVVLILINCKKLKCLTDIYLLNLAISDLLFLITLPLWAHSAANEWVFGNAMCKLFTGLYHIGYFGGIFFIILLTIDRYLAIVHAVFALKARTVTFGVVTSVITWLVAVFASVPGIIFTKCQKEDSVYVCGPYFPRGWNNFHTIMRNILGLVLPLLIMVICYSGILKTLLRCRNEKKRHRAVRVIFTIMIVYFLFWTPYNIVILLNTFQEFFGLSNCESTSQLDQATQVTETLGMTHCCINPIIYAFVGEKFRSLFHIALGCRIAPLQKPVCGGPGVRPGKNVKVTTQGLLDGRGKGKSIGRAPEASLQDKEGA
Chain of Melanocortin receptor 4 (P32245 whole entry): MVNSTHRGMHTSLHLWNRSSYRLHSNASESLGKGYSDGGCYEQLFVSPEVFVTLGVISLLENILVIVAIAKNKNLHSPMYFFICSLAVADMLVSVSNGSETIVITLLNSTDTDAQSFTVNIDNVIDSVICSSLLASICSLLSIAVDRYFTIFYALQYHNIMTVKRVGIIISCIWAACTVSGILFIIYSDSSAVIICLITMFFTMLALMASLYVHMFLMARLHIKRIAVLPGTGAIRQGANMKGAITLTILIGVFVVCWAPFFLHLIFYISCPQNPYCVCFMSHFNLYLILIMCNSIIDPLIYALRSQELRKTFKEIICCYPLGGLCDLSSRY

Regarding `CN(C)/N=N/c1[nH]cnc1C(N)=O` [DACARBAZINE], the IC50 result (in experiment [1]; in experiment [2]; in experiment [3]; at Glycine receptor; against Melanocortin receptor 4; in experiment [4]) was “Not Active” in each case. Besides, in experiment [5] (insect cells), the IC50 entry is listed as “Not Active”.
`COc1ccc2c(c1)[C@]13CCCC[C@@H]1[C@H](C2)N(C)CC3` [DEXTROMETHORPHAN]: the IC50 entry (in experiment [1]; in experiment [2]; in experiment [3]; against Glycine receptor; against Melanocortin receptor 4; in experiment [4]) was “Not Active” each time. Besides, the IC50 entry in experiment [5] (insect cells) was “Not Active”.
For the molecule `CC(=O)Nc1c(I)c(NC(C)=O)c(I)c(C(=O)O)c1I` [DIATRIZOIC ACID], the IC50 result (in experiment [1]; in experiment [2]; in experiment [3]; against Glycine receptor; on Melanocortin receptor 4; in experiment [4]) was “Not Active” throughout. Besides, the IC50 result in experiment [5] (insect cells) is on record as “Not Active”.
For the molecule `COP(=O)(OC)OC=C(Cl)Cl` [DICHLORVOS], the IC50 entry (in experiment [1]; in experiment [2]; in experiment [3]; at Glycine receptor; on Melanocortin receptor 4; in experiment [4]) was “Not Active” in each case. Moreover, the IC50 entry in experiment [5] (insect cells) is reported as “Not Active”.
Regarding `O=C(O)Cc1ccccc1Nc1c(Cl)cccc1Cl` [DICLOFENAC], the IC50 entry (in experiment [1]; in experiment [2]; in experiment [3]; at Glycine receptor; against Melanocortin receptor 4; in experiment [4]) was “Not Active” in each case. Besides, in experiment [5] (insect cells), the IC50 result is on record as “Not Active”.
With `C[C@H]1O[C@@H](O[C@H]2[C@@H](O)C[C@H](O[C@H]3[C@@H](O)C[C@H](O[C@H]4CC[C@@]5(C)[C@H](CC[C@@H]6[C@@H]5CC[C@]5(C)[C@@H](C7=CC(=O)OC7)CC[C@]65O)C4)O[C@@H]3C)O[C@@H]2C)C[C@H](O)[C@@H]1O` [DIGITOXIN], the IC50 entry (in experiment [1]; in experiment [2]; in experiment [3]; against Glycine receptor; at Melanocortin receptor 4; in experiment [4]) was “Not Active” throughout. Besides, the IC50 entry in experiment [5] (insect cells) was “Not Active”.
Consider `CCN1CC(CCN2CCOCC2)C(c2ccccc2)(c2ccccc2)C1=O` (stereo not drawn) [DOXAPRAM], for which the IC50 entry (in experiment [1]; in experiment [2]; in experiment [3]; on Glycine receptor; against Melanocortin receptor 4; in experiment [4]) was “Not Active” in each case. Moreover, the IC50 result in experiment [5] (insect cells) was “Not Active”.
For `Cn1c(=O)c2c(ncn2CC2OCCO2)n(C)c1=O` [DOXOFYLLINE], the IC50 result (in experiment [1]; in experiment [2]; in experiment [3]; against Glycine receptor; against Melanocortin receptor 4; in experiment [4]) was “Not Active” each time. The IC50 result in experiment [5] (insect cells) was “Not Active”.
`COc1cccc2c1C(=O)c1c(O)c3c(c(O)c1C2=O)C[C@@](O)(C(=O)CO)C[C@@H]3O[C@H]1C[C@H](N)[C@H](O)[C@H](C)O1` [DOXORUBICIN]: the IC50 entry (in experiment [1]; in experiment [2]; in experiment [3]; against Glycine receptor; at Melanocortin receptor 4; in experiment [4]) was “Not Active” in each case. In addition, in experiment [5] (read-out: IC50), the IC50 worked out at 2.49 µM.
Consider `COc1cccc2c1C(=O)c1c(O)c3c(c(O)c1C2=O)C[C@@](O)(C(=O)CO)C[C@@H]3O[C@H]1C[C@H](N)[C@@H](O)[C@H](C)O1` [EPIRUBICIN], for which the 50% inhibitory concentration (IC50) result (in experiment [1]; in experiment [2]; in experiment [3]; against Glycine receptor; at Melanocortin receptor 4; in experiment [4]) was “Not Active” each time. Further, the IC50 result in experiment [5] (insect cells) is “Not Active”.
Regarding `C[C@]12CC[C@@H]3c4ccc(OC(=O)c5ccccc5)cc4CC[C@H]3[C@@H]1CC[C@@H]2O` [ESTRADIOL BENZOATE], the IC50 entry (in experiment [1]; in experiment [2]; in experiment [3]; at Glycine receptor; against Melanocortin receptor 4; in experiment [4]) was “Not Active” in each case. In experiment [5] (insect cells), the IC50 entry is “Not Active”.
Take `C[C@]12CC[C@@H]3c4ccc(O)cc4CC[C@H]3[C@@H]1CC[C@@H]2O` [ESTRADIOL]: the half-maximal inhibitory concentration (IC50) entry (in experiment [1]; in experiment [2]; in experiment [3]; against Glycine receptor; on Melanocortin receptor 4; in experiment [4]) was “Not Active” throughout. For the same molecule, the IC50 result in experiment [5] (insect cells) is given as “Not Active”.
As to `CC[C@@H](CO)NCCN[C@@H](CC)CO` [ETHAMBUTOL], the IC50 entry (in experiment [1]; in experiment [2]; in experiment [3]; against Glycine receptor; against Melanocortin receptor 4; in experiment [4]) was “Not Active” in each case. Moreover, the IC50 result in experiment [5] (insect cells) is on record as “Not Active”.
As for `CC1(C)O[C@@H]2C[C@H]3[C@@H]4C[C@H](F)C5=CC(=O)C=C[C@]5(C)[C@H]4[C@@H](O)C[C@]3(C)[C@]2(C(=O)CO)O1` [FLUNISOLIDE], the IC50 result (in experiment [1]; in experiment [2]; in experiment [3]; against Glycine receptor; against Melanocortin receptor 4; in experiment [4]) was “Not Active” each time. Besides, the IC50 entry in experiment [5] (insect cells) was “Not Active”.
As to `CC1(C)O[C@@H]2C[C@H]3[C@@H]4C[C@H](F)C5=CC(=O)C=C[C@]5(C)[C@@]4(F)[C@@H](O)C[C@]3(C)[C@]2(C(=O)CO)O1` [FLUOCINOLONE ACETONIDE], the IC50 entry (in experiment [1]; in experiment [2]; in experiment [3]; on Glycine receptor; against Melanocortin receptor 4; in experiment [4]) was “Not Active” in each case. In experiment [5] (insect cells), the IC50 result is given as “Not Active”.
For `CC1(C)O[C@@H]2C[C@H]3[C@@H]4C[C@H](F)C5=CC(=O)CC[C@]5(C)[C@H]4[C@@H](O)C[C@]3(C)[C@]2(C(=O)CO)O1` [FLURANDRENOLIDE], the IC50 result (in experiment [1]; in experiment [2]; in experiment [3]; against Glycine receptor; at Melanocortin receptor 4; in experiment [4]) was “Not Active” each time. Besides, in experiment [5] (insect cells), the IC50 result is “Not Active”.
On to `CN(C)c1ccc(C(=C2C=CC(=[N+](C)C)C=C2)c2ccc(N(C)C)cc2)cc1.[Cl-]` [GENTIAN VIOLET], for which the IC50 entry (in experiment [1]; in experiment [2]; in experiment [3]; on Glycine receptor; against Melanocortin receptor 4; in experiment [4]) was “Not Active” throughout. In addition, the IC50 entry in experiment [5] (insect cells) is listed as “Not Active”.
On to `Cc1ccc(S(=O)(=O)NC(=O)NN2CC3CCCC3C2)cc1` (stereo not drawn) [GLICLAZIDE], for which the IC50 result (in experiment [1]; in experiment [2]; in experiment [3]; against Glycine receptor; against Melanocortin receptor 4; in experiment [4]) was “Not Active” in each case. Also, the IC50 entry in experiment [5] (insect cells) was “Not Active”.
In the case of `NC(=O)NO` [HYDROXYUREA], the concentration for half-maximal inhibition (IC50) entry (in experiment [1]; in experiment [2]; in experiment [3]; on Glycine receptor; against Melanocortin receptor 4; in experiment [4]) was “Not Active” each time. Besides, in experiment [5] (insect cells), the IC50 entry was “Not Active”.
